Experimental data from ChEMBL document CHEMBL4190228, “Covalent inhibitors design and discovery” (Eur J Med Chem, 2017).

Assays:
[1] = molecular target: Tyrosine-protein kinase BTK (Homo sapiens) (UniProt Q06187); assay: Receptor occupancy at BTK in human Ramos B cells at 1 uM preincubated for 1 hr followed by compound washout measured after 20 hrs by PP-BODIPY probe based fluorescence assay; format: cell-based
Sequence of Tyrosine-protein kinase BTK (Homo sapiens) (Q06187 whole entry): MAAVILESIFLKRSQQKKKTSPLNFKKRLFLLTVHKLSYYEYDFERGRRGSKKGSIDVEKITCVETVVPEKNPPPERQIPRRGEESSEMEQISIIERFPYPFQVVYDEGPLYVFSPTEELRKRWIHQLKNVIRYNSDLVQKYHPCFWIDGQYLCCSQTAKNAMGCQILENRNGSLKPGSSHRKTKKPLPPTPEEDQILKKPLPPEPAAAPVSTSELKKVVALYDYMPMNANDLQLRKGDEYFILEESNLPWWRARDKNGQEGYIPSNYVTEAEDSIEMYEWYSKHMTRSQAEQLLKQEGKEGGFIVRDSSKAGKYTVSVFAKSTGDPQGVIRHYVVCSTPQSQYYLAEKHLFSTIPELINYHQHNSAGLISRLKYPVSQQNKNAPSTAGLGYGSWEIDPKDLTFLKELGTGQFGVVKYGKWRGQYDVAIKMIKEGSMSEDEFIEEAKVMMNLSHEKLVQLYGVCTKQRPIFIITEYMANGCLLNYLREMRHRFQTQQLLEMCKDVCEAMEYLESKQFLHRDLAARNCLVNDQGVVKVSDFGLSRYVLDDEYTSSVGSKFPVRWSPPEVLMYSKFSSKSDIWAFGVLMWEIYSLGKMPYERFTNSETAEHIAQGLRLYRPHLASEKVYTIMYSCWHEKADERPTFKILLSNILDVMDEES

SMILES	T1/2 (Francisella tularensis)	Occ [1]
CC(C)(C)NC(=O)[C@H]1CC[C@H]2[C@@H]3CC[C@H]4NC(=O)C=C[C@]4(C)[C@H]3CC[C@]12C	4.7 to 7.1 h	–
C/C=C(\C#N)C(=O)N1CCC[C@@H](n2nc(-c3ccc(Oc4ccccc4)cc3)c3c(N)ncnc32)C1	–	5%
CC(C)(C)/C=C(\C#N)C(=O)N1CCC[C@@H](n2nc(-c3ccc(Oc4ccccc4)cc3)c3c(N)ncnc32)C1	–	50%
